Measured values published in PMC7699860 (Molecules, 2020).

Experiments:
[1] = target: T1, bovine serum albumin (BSA) (Bos taurus, UniProt P02769); assay: BSA intrinsic fluorescence quenching titration ([…] °C), […] model; no adduct by ESI-MS; format: binding
T1 construct: gene ALB

[2] = system: poly(A)poly(U) (RNA, polymer) A/U; assay: absorbance titration; conditions: Na+ (NaCl 0.1 M), NaCac 2.5 mM
poly(A) (RNA, polymer) A = assay: absorbance titration; conditions: Na+ (NaCl 0.1 M), NaCac 2.5 mM, pH 7.0
[3] = system: poly(A)2poly(U) (RNA triple helix) (RNA, polymer) A/U; assay: absorbance titration; conditions: Na+ (NaCl 0.1 M); NaCac 2.5 mM, pH 7.0
[4] = system: Tel-23 (DNA telomeric G4) (DNA, G4) TAGGGTTAGGGTTAGGGTTAGGG; assay: absorbance titration

T1 sequence (P02769 25-607): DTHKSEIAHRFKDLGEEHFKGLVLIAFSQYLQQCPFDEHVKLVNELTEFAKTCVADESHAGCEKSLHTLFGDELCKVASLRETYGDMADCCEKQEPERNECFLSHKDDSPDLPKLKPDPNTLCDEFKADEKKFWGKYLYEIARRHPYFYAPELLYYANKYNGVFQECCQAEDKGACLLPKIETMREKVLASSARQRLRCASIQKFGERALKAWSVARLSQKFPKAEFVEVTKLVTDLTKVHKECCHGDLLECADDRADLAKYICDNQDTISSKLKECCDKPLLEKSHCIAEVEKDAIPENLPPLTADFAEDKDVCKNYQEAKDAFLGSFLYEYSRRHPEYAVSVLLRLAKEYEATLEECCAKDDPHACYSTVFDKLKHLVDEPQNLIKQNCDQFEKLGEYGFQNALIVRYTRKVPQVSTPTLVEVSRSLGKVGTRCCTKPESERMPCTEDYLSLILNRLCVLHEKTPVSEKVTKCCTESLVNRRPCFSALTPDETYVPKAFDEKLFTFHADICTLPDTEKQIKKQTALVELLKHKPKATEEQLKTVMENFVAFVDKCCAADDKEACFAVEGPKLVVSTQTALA

CCn1ccn(Cc2c3ccccc3cc3ccccc23)[c]1=[Ag]([Cl])=[c]1n(CC)ccn1Cc1c2ccccc2cc2ccccc12 [[Ag(EIA)2]Cl, bis(1-(anthracen-9-ylmethyl)-3-ethylimidazol-2-ylidene) silver chloride]
BSA intrinsic fluorescence quenching titration (15-50 °C), 1:1 model; no adduct [1]: the silver complex interacts with the protein but with a reversible weak process based on electrostatics

CCN1[C]N(Cc2c3ccccc3cc3ccccc23)C=C1.CCN1[C]N(Cc2c3ccccc3cc3ccccc23)C=C1.[Ag+]
Kpoly(A)poly(U) ([2]; pH 7.0, 25.0 °C, apparent, per base pair, per base): (1.5 ± 3) × 10^3 M^-1
binding (poly(A) (RNA, polymer) A): no
binding [3]: no
binding ([4]; very slight spectral variations, conclusions state no interaction): weak

CCN1[C]N(Cc2c3ccccc3cc3ccccc23)C=C1.CCN1[C]N(Cc2c3ccccc3cc3ccccc23)C=C1.[Au+]
binding ([2]; pH 7.0, external binding, fit not converging): yes
binding (poly(A) (RNA, polymer) A; external binding, fit not converging): yes
binding ([4]; unselective outer binding, fit not converging): yes
